According to patent US20160120863A1, “SLC2A TRANSPORTER INHIBITORS” (IOMET PHARMA LTD., priority 2013, published 2016):
Like-named read-outs stand apart in the source and are kept apart here.

What was measured:
Format in all cases: cell-based
human GLUT1 = target: T1, human GLUT1 (Homo sapiens, UniProt P11166); assay: [3H]-deoxy-D-glucose uptake assay, GLUT1; conditions: [3H]-deoxy-D-glucose uptake in HEK293 cells stably expressing human GLUT1
T1 construct: expressed in transfected cells
T1 sequence (P11166 1-492): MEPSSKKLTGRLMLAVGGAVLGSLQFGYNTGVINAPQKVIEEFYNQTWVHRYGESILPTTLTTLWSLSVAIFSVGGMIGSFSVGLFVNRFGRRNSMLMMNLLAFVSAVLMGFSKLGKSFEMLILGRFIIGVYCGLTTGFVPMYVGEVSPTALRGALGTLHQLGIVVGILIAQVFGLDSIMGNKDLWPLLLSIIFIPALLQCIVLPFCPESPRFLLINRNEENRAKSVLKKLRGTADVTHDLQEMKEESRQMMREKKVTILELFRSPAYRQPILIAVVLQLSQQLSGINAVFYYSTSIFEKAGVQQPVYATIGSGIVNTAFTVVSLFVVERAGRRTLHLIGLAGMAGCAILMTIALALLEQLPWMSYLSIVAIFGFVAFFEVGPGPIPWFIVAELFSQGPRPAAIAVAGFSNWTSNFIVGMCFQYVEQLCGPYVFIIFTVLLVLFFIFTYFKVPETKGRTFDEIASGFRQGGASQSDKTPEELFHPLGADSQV
How it was run: (§1)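 HEK293 cells stably overexpressing human GLUT1 or GLUT2, seeded at 60,000 per well, treated with compounds in glucose-free uptake buffer for 30 min at 37 °C. [3H]-deoxy-D-glucose uptake quantified by scintillation counting after ice-cold PBS washes; IC50 determined.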

A549 cells = assay: Lactate production assay (lactate secretion, 5 or 17 mM glucose); conditions: Homo sapiens, 4 hours incubation
Method: A549 cells were grown in DMEM/F12K+L-Glutamine supplemented with 10% foetal bovine serum. Cells were re-suspended in assay media (DMEM without phenol red, pyruvate and glucose, 10% foetal bovine serum, 2 mM L-Glutamine and 5 or 17 mM glucose) and seeded at 40×10^3 cells per well into 96-well plates and incubated overnight. Increasing concentrations of the test compound (compound 155) and vehicle control were added and incubated for 4 hours at 37° C., 5% CO2. Lactate reagent was added (Trinity Biotech), the plates were incubated in the dark for 7 min at room temperature before capturing the absorbance at 540 nm using a plate reader.

[1] = test system: A549 adenocarcinoma NucLight Red cells; assay: Cell growth (proliferation) assay, NucLight Red, IncuCyte; conditions: Homo sapiens, AUC analysis of first 24 hours of compound exposure
Method: (§2) A549 adenocarcinoma NucLight Red cells were grown in Ham's F12K medium supplemented with 10% foetal bovine serum, 2 mM Glutamax, 1% pen/strep and 0.5 μg ml-l puromycin. Cells were seeded at 1×10^4 cells per well into 384-well microtitre-plates with media containing 5 mM (FIGS. 3A and 3C) or 17 mM glucose (FIGS. 3B and 3D). The cells were left to adhere before the addition of increasing concentration of test compound (compound 155) and vehicle control. The cells stably expressed Essen CellPlayer NucLight Red Fluorescent Protein to allow measurement of cell proliferation (FIGS. 3 A and B). The culture medium contained Essen CellPlayer 96-well Kinetic Caspase 3/7-reagent and Biotium DEVD-NucView 488 to allow measurement of apoptosis induction (FIGS. 3 C and D). Cells were monitored continuously for 48 hours of compound exposure using Essen IncuCyte.
(§3) pIC50 values for the proliferation and apoptosis assays were derived from area under the curve (AUC) analysis of data from the first 24 hours of compound exposure.

[2] = test system: A549 adenocarcinoma NucLight Red cells; assay: Apoptosis induction assay, Caspase 3/7 reagent, IncuCyte; conditions: Homo sapiens, Caspase 3/7, AUC analysis of first 24 hours of compound exposure
Method: as §2, §3

[3] = test system: [3H]-deoxy-D-glucose uptake; assay: Glucose uptake assay with compound 155 (inhibition of [3H]-deoxy-D-glucose uptake, FIG. 2A); conditions: read-out: Glucose Uptake pIC50 (converted)
human GLUT2 = target: T2, human GLUT2 (Homo sapiens, UniProt P11168); assay: [3H]-deoxy-D-glucose uptake assay, GLUT2; conditions: [3H]-deoxy-D-glucose uptake in HEK293 cells stably expressing human GLUT2
T2 construct: expressed in transfected cells
T2 sequence (P11168 1-524): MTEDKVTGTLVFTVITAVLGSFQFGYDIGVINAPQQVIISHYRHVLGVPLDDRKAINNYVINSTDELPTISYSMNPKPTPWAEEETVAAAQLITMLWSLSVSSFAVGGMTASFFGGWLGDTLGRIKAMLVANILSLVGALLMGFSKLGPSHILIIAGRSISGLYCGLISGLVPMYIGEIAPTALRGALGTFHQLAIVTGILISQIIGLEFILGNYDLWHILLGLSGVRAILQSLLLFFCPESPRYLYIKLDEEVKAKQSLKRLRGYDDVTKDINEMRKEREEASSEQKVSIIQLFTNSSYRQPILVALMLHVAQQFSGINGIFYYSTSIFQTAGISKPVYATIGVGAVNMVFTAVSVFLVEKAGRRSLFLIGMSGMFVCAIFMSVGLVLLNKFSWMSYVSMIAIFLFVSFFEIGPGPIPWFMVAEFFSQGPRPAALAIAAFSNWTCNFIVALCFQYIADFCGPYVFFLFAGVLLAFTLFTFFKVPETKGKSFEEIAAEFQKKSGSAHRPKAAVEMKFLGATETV
How it was run: as §1

human GLUT3 = target: T3, human GLUT3 (Homo sapiens, UniProt P11169); assay: [3H]-deoxy-D-glucose uptake assay, GLUT3; conditions: [3H]-deoxy-D-glucose uptake in HEK293 cells stably expressing human GLUT3
T3 construct: expressed in transfected cells
T3 sequence (P11169 1-496): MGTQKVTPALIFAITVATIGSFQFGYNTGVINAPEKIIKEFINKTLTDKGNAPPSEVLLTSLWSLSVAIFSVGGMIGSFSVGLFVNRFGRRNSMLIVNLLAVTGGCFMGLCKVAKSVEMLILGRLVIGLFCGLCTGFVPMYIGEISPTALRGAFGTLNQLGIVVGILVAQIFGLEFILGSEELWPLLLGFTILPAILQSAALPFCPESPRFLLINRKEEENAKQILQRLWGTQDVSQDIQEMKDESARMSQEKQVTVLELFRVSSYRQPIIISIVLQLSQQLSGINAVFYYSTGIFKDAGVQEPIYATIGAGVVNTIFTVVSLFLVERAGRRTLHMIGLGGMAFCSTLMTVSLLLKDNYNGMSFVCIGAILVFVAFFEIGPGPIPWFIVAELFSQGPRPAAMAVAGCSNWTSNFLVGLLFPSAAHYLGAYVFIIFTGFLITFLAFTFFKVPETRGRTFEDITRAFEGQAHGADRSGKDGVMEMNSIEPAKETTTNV
How it was run: (§4)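 HEK293 cells stably overexpressing human GLUT3 or GLUT4, preincubated with compound 30 min at 37 °C in glucose-free HEPES buffer pH 7.4. [3H]-deoxy-D-glucose (125 μM final) uptake then run 30 min at 37 °C, quantified by scintillation counting; IC50 determined.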

human GLUT4 = target: T4, human GLUT4 (Homo sapiens, UniProt P14672); assay: [3H]-deoxy-D-glucose uptake assay, GLUT4; conditions: [3H]-deoxy-D-glucose uptake in HEK293 cells stably expressing human GLUT4
T4 construct: expressed in transfected cells
T4 sequence (P14672 1-509): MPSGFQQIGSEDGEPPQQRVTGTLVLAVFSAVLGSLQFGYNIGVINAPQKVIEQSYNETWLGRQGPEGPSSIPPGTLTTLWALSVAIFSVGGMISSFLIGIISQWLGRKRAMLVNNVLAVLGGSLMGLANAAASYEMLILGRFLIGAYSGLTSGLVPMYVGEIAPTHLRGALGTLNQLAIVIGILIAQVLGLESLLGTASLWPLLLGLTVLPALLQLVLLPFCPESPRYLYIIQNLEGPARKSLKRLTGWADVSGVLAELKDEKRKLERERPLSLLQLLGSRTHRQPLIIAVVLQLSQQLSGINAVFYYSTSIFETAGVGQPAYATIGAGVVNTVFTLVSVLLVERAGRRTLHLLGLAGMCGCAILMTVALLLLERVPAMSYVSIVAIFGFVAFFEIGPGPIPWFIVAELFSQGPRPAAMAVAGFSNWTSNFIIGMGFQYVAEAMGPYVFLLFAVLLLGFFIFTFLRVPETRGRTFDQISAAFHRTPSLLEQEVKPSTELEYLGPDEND
How it was run: as §4

SMILES	GLUT1 pIC50 (human GLUT1)	IC50 (A549 cells; 5 mM glucose, read-out: Lactate Secretion (5 mM glucose) pIC50 (converted)) [nM]	IC50 (A549 cells; 17 mM glucose, read-out: Lactate Secretion (17 mM glucose) pIC50 (converted)) [nM]	IC50 ([1]; 5 mM glucose, read-out: Proliferation (5 mM glucose) pIC50 (converted)) [nM]	IC50 ([1]; 17 mM glucose, read-out: Proliferation (17 mM glucose) pIC50 (converted)) [nM]	IC50 ([2]; 5 mM glucose, read-out: Apoptosis (5 mM glucose) pIC50 (converted)) [nM]	IC50 ([2]; 17 mM glucose, read-out: Apoptosis (17 mM glucose) pIC50 (converted)) [nM]	IC50 [3] [nM]	GLUT2 pIC50 (human GLUT2)	GLUT3 pIC50 (human GLUT3)	GLUT4 pIC50 (human GLUT4)
N#Cc1ccccc1-c1ccc2nc(-c3ccc(Cl)cc3)c(CN3CCN(C(=O)c4cccc(F)c4)CC3)n2c1 [Compound 155]	+++ (pIC50 ≧ 6.00)	77.6	398	< 126	380	316	813	25.7			
CS(=O)(=O)Nc1ccc2nc(-c3ccc(Cl)cc3Cl)c(CN3CCN4C(=O)CCC4C3)n2c1 (stereo not drawn) [Compound 373]	+++ (pIC50 ≧ 6.00)								+++ (pIC50 ≧ 6.00)	+++ (pIC50 ≧ 6.00)	+++ (pIC50 ≧ 6.00)
CN(c1ccc2nc(-c3ccc(Cl)cc3Cl)c(CN3CCN4C(=O)CCC4C3)n2c1)S(C)(=O)=O (stereo not drawn) [Compound 374]	+++ (pIC50 ≧ 6.00)								+++ (pIC50 ≧ 6.00)	+++ (pIC50 ≧ 6.00)	+++ (pIC50 ≧ 6.00)
CSc1ccc2nc(-c3ccc(Cl)cc3)c(CN3CCN(C(C)=O)CC3)n2c1 [Compound 377]	++ (pIC50 5.00-5.99)								++ (pIC50 5.00-5.99)	+++ (pIC50 ≧ 6.00)	+++ (pIC50 ≧ 6.00)
CC(=O)N1CCN(Cc2c(-c3ccc(Cl)cc3)nc3ccc(S(C)(=O)=O)cn23)CC1 [Compound 378]	+++ (pIC50 ≧ 6.00)								+− (pIC50 < 4.00)	+++ (pIC50 ≧ 6.00)	+++ (pIC50 ≧ 6.00)
CC(=O)N1CCN(Cc2c(-c3ccc(Cl)cc3)nc3ccc(S(=O)(=O)C(C)C)cn23)CC1 [Compound 382]	+++ (pIC50 ≧ 6.00)								++ (pIC50 5.00-5.99)	+++ (pIC50 ≧ 6.00)	+++ (pIC50 ≧ 6.00)
CCS(=O)(=O)c1ccc2nc(-c3ccc(Cl)cc3)c(CN3CCN(C(C)=O)CC3)n2c1 [Compound 385]	+++ (pIC50 ≧ 6.00)								++ (pIC50 5.00-5.99)	+++ (pIC50 ≧ 6.00)	+++ (pIC50 ≧ 6.00)

Continued, values first:

GLUT1 pIC50 (human GLUT1)	IC50 (A549 cells; 5 mM glucose, read-out: Lactate Secretion (5 mM glucose) pIC50 (converted)) [nM]	IC50 (A549 cells; 17 mM glucose, read-out: Lactate Secretion (17 mM glucose) pIC50 (converted)) [nM]	IC50 ([1]; 5 mM glucose, read-out: Proliferation (5 mM glucose) pIC50 (converted)) [nM]	IC50 ([1]; 17 mM glucose, read-out: Proliferation (17 mM glucose) pIC50 (converted)) [nM]	IC50 ([2]; 5 mM glucose, read-out: Apoptosis (5 mM glucose) pIC50 (converted)) [nM]	IC50 ([2]; 17 mM glucose, read-out: Apoptosis (17 mM glucose) pIC50 (converted)) [nM]	IC50 [3] [nM]	GLUT2 pIC50 (human GLUT2)	GLUT3 pIC50 (human GLUT3)	GLUT4 pIC50 (human GLUT4)	SMILES
+++ (pIC50 ≧ 6.00)								++ (pIC50 5.00-5.99)	+++ (pIC50 ≧ 6.00)	+++ (pIC50 ≧ 6.00)	Cn1cc(C(=O)N2CCN(Cc3c(-c4ccc(Cl)cc4Cl)nc4ccc(NS(C)(=O)=O)cn34)CC2)cn1 [Compound 369]
+++ (pIC50 ≧ 6.00)								+++ (pIC50 ≧ 6.00)	+++ (pIC50 ≧ 6.00)	+++ (pIC50 ≧ 6.00)	CN(c1ccc2nc(-c3ccc(Cl)cc3Cl)c(CN3CCN(C(=O)c4ccnnc4)CC3)n2c1)S(C)(=O)=O [Compound 370]
+++ (pIC50 ≧ 6.00)								+++ (pIC50 ≧ 6.00)	+++ (pIC50 ≧ 6.00)	+++ (pIC50 ≧ 6.00)	CN(c1ccc2nc(-c3ccc(Cl)cc3Cl)c(CN3CCN(C(=O)C4CCOCC4)CC3)n2c1)S(C)(=O)=O [Compound 372]
+++ (pIC50 ≧ 6.00)								++ (pIC50 5.00-5.99)	+++ (pIC50 ≧ 6.00)	+++ (pIC50 ≧ 6.00)	CN(c1ccc2nc(-c3ccc(Cl)cc3Cl)c(CN3CCN(C(=O)C(C)(C)O)CC3)n2c1)S(C)(=O)=O [Compound 381]
